Experimental data from PubChem BioAssay AID330 (DTP/NCI, 2004).
Toxic doses and inconclusive results are not listed. How the source made its calls: active means survival T/C of 150% or more; inactive means T/C below 125% in these data.

Tested on: P388 leukemia ip, CD2F1 mice, survival T/C
Assay: NCI In Vivo Anticancer Drug Screen. Data for tumor model P388 Leukemia (intraperitoneal) in CD2F1 (CDF1) mice
Conditions: endpoint: median survival time, higher = longer survival
Procedure, shortened: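 Mice carrying the transplanted tumor received test compound or vehicle. Survival was recorded in each group, and the value is the treated-group measurement divided by that of the vehicle-treated control group.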

[1] = dose: 50.0 mg/kg/injection, schedule: Q01DX005 (ip), vehicle: Klucel (hydroxypropylcellulose) (HPC)
[2] = dose: 100.0 mg/kg/injection, schedule: Q01DX005 (ip), vehicle: Klucel (hydroxypropylcellulose) (HPC)
[3] = dose: 200.0 mg/kg/injection, schedule: Q01DX005 (ip), vehicle: Klucel (hydroxypropylcellulose) (HPC)

Measured: T/C

COc1cc2c(cc1O)CCCC(C)(C)C2=O
inactive: dose: 100.0 mg/kg/injection, schedule: Q01DX009 (ip), vehicle: saline with Tween-80 95 % of control | dose: 200.0 mg/kg/injection, schedule: Q01DX009 (ip), vehicle: saline with Tween-80 96 % of control

Cn1c(=O)c2[nH]c(/N=N/N(CCCl)CCCl)nc2n(C)c1=O
inactive: dose: 25.0 mg/kg/injection, schedule: Q01DX009 (ip), vehicle: saline 100 % of control | dose: 50.0 mg/kg/injection, schedule: Q01DX009 (ip), vehicle: saline 100 % of control | dose: 100.0 mg/kg/injection, schedule: Q01DX009 (ip), vehicle: saline 104 % of control | dose: 200.0 mg/kg/injection, schedule: Q01DX009 (ip), vehicle: saline 107 % of control | dose: 400.0 mg/kg/injection, schedule: Q01DX009 (ip), vehicle: saline 96 % of control

Cn1cnc([N+](=O)[O-])c1SCC(N)C(=O)O (configuration not stated)
inactive: [1] 94 % of control | [2] 94 % of control | [3] 94 % of control

Cc1nn(-c2ccccc2)nc1CBr
inactive: dose: 50.0 mg/kg/injection, schedule: Q01DX005 (ip), vehicle: saline with Tween-80 97 % of control | dose: 100.0 mg/kg/injection, schedule: Q01DX005 (ip), vehicle: saline with Tween-80 106 % of control

CC(C)CS(=O)(=O)c1ncnc2nc[nH]c12
inactive: [1] 102 % of control | [2] 97 % of control | [3] 91 % of control

Nc1cc(Cl)cc2c1-c1ccc(Cl)cc1C2
inactive: [1] 93 % of control | [2] 93 % of control | [3] 94 % of control

CC1(C)C2(C(N)=O)C(=O)NC(=O)C12C(=O)O (configuration not stated)
inactive: dose: 25.0 mg/kg/injection, schedule: Q04DX002 (ip), vehicle: saline with Tween-80 95 % of control | dose: 50.0 mg/kg/injection, schedule: Q04DX002 (ip), vehicle: saline with Tween-80 104 % of control | dose: 100.0 mg/kg/injection, schedule: Q04DX002 (ip), vehicle: saline with Tween-80 103 % of control

CCNc1cc2oc(=O)cc(C(F)(F)F)c2cc1C
inactive: [1] 97 % of control | [2] 100 % of control | [3] 99 % of control

CC(C)N1CCOC1c1ccccc1 (configuration not stated)
inactive: dose: 50.0 mg/kg/injection, schedule: Q04DX003 (ip), vehicle: saline sonified 109 % of control | dose: 100.0 mg/kg/injection, schedule: Q04DX003 (ip), vehicle: saline sonified 118 % of control | dose: 200.0 mg/kg/injection, schedule: Q04DX003 (ip), vehicle: saline sonified 109 % of control
